{"source": "patent US20230381280A1", "about": "“NEW DOSAGE REGIMEN FOR INHALED VASOACTIVE INTESTINAL POLYPEPTIDE” (priority 2020, published 2023)", "system": "COVID-19 pulmonary involvement", "data": [{"smiles": "CC[C@H](C)[C@H](NC(=O)[C@H](CO)NC(=O)[C@H](CC(N)=O)NC(=O)[C@H](CC(C)C)NC(=O)[C@H](Cc1ccc(O)cc1)NC(=O)[C@H](CCCCN)NC(=O)[C@H](CCCCN)NC(=O)[C@@H](NC(=O)[C@H](C)NC(=O)[C@H](CCSC)NC(=O)[C@H](CCC(N)=O)NC(=O)[C@H](CCCCN)NC(=O)[C@H](CCCNC(=N)N)NC(=O)[C@H](CC(C)C)NC(=O)[C@H](CCCNC(=N)N)NC(=O)[C@@H](NC(=O)[C@H](Cc1ccc(O)cc1)NC(=O)[C@H](CC(N)=O)NC(=O)[C@H](CC(=O)O)NC(=O)[C@@H](NC(=O)[C@H](Cc1ccccc1)NC(=O)[C@@H](NC(=O)[C@H](C)NC(=O)[C@H](CC(=O)O)NC(=O)[C@H](CO)NC(=O)[C@@H](N)Cc1c[nH]cn1)C(C)C)[C@@H](C)O)[C@@H](C)O)C(C)C)C(=O)N[C@@H](CC(C)C)C(=O)N[C@@H](CC(N)=O)C(N)=O", "note": "[Aviptadil]", "values": [{"measurement": "Entering Intensive Care (%)", "setting": "Age >=60, treatment group", "result": 25, "unit": "%"}, {"measurement": "Tolerability", "setting": "human, in vivo", "result": "well tolerated"}]}]}
